Experimental data published in patent publication EP1785722A1, “Microbial, viral and mammalian susceptibility to agents that affect cell growth and metabolism, and compatibility of compounds” (Stratos Bio Ltd., priority 2005, dated 2007).
“Also recorded” adds a separate entry of the source.

Columns and labels:
[1] = Animal case study: antibiotic treatment of a cat; assay type: in vivo; conditions: domestic cat with a scratch to the eye; 30 days of treatment
Protocol: A domestic cat was given a mixture of antibiotics as eye drops in response to a scratch to the eye. […] Previously the cat had never been given milk (as many animals are allergic to cow's milk). The cat was now given full cream milk as part of a regimen to promote weight gain (the cat also continued to eat its usual amount of daily cat food throughout the period of weight loss). Initially weight was gained but within 24 hours weight loss resumed (presumably because the pathogenic bacteria/viruses had found a way of utilising lactose). An autopsy indicated bone-cancer as cause of death. The body wasting caused by the weight loss was very similar to that observed in early AIDS cases. However the cat had been regularly vaccinated against HTLV 1 through its 16 year life (and had never been ill in that period).

B. pumilus = assay: MIC determination against B. pumilus; assay type: cell-based, Bacillus pumilus; conditions: as printed in table heads
Protocol: (§1) However when the concentration of organisms was 5.1 x 10^6 cfu/ml which was the inoculum used in the microcalorimetric incubations the MIC was increased to 2 µg/ml; the effect was also bacteriostatic.

Bacillus pumilus = assay: Flow microcalorimetry (p-t curves) of growing Bacillus pumilus; assay type: cell-based; conditions: ZNB 20 ug/ml; pH 8.00
Description: (§2) • a) For B. pumilus a simple glucose/salts medium was employed with a glucose concentration of 0.1 % w/v. • b) For Bord. bronch. The above salts medium was used with the addition of nicotinic acid, methionine and glutamic acid. Glutamic acid was used at a concentration of 0.2% w/v. • c) For M. flavus a semidefined medium was employed, using the same salts as a B. pumilus but also Na-citrate, biotin and protease peptone. In the calorimeter a concentration of 0.4% protease peptone was used. All medium constituents (except protease) were analytical reagents. The calorimetric medium was therefore a final concentration of 100ml of either solution a, b or c freshly autoclaved for 15 mins exactly at 121°C, 151b/sq inch. Glucose was added to the appropriate solution after autoclaving.
(§3) To the vertical face of the vessel close to its base, equidistantly spaced around the circumference, ports were fitted for an oxygen electrode and for sampling/inoculation. The fermenter was closed with a flat flanged glass lid which had five ports accommodating respectively, gas inlet tube, gas exhaust (via air condenser), inlet and outlet flow-lines to and from the calorimeter. The fermenter and lid was sealed with a p.t.f.e. gasket and clamped with a metal clip. The fermenter was placed on a magnetic stirring unit in a water jacket which allowed circulation of the thermostatically controlled water at 30°C or 37°C. The fermenter which contained a Teflon coated magnetic stirring bar, was sterilised by autoclaving.
(§4) For a typical calorimetric incubation the medium was passed through the calorimetric vessel at the same flow rate and temperature as those used in the experiment to establish a steady baseline deflection. The following operations then took place to a strict timetable. The liquid nitrogen stored ampoule was thawed at 38°C for 3 min and then stirred for 20 sec on a whirlimixer. The bacterial suspension (0.5-1.5ml) volumes was inoculated into the medium (100ml) two minutes after completion of thawing. A Gilson automatic pipette was used for inoculation. The calorimeter inlet flow-line was placed in the incubation medium 30 seconds after inoculation. The flowing incubation medium reached the calorimetric vessel two min after inlet flow-line insertion. At this time the recording of the p-t curves was started. Eight min after inoculation the outflow from the calorimeter was returned to the fermenter (after the "baseline" medium had run to waste but before the inoculated medium ran to waste) thus making a closed system. Aeration was started as soon as the inlet tube was inserted in the fermenter. Microbiological purity of the culture was checked by plating out a sample of the culture at the end of each incubation on nutrient agar (lab M).
(§5) The output of calorimetric experiments is a plot of power (energy evolution per unit of time) as a function of time. The unit of power (p) is the Watt (W) and the unit of time is the hour (h). In some experiments seconds (s) were used as time unit.
as §1

Micrococcus flavus [2] = assay: MIC / MBC against Micrococcus flavus; assay type: cell-based
Micrococcus flavus [3] = assay: Flow microcalorimetry (p-t curves) of growing Micrococcus flavus; assay type: cell-based
Description: as §2, §3, §4, §5
This point occurred at an increase in deflection of 29.5% from the baseline value.

[4] = test system: Bordetella Bronchiseptica; assay: MIC / MBC against Bordetella bronchiseptica; assay type: cell-based; conditions: as printed in table heads
[5] = test system: Bordetella Bronchiseptica; assay: Flow microcalorimetry (p-t curves) of growing Bordetella bronchiseptica; assay type: cell-based
Description: as §2, §3, §4, §5
After successful freezing of Bord. bronch p-t curves for growth in different concentrations of glutamic acid from 0.1%-0.5% were obtained. It was concluded that a medium containing 0.2% glutamic acid would be sufficient for a good deflection in the microcalorimeter minimising the possibility of the bacteria clogging in the microcalorimetric cell or in the teflon tubes leading to and from the microcalorimetric cell. A pH of 7 was used in all the following experiments as this is the optimum pH for polymyxin - lipid binding.
It was of vital importance to maintain a constant oxygen tension; this was achieved by using saturation concentrations of oxygen. It was decided to use the height of the small peak as full scale deflection for the antibiotic assay as the increase in power was exponential up to this point and the peak occurred at a convenient time. This choice of assay point was empirical. The inoculum was 1.1 ± 0.06 x 10^8 cfu/ml for all the microclalorimetric incubations. […]

E. coli [6] = assay: MIC / MBC against E. coli; assay type: cell-based
respiring E.coli = assay: Microcalorimetry of respiring E. coli in glucose buffer; assay type: cell-based; conditions: for response on addition to respiring E.coli: highest concentration added 300µg/ml
Protocol: E.coli was suspended in 10% DMSO prior to freezing and the viable counts were for batch 1: pre-freeze: 4.0 ± 0.6_ x 10^10 cfu/ml and post -freeze 2.0 ± 0.44 x 10^10 cfu/ml and for batch 2: pre-freeze: 3.45 ± 0.58 x 10^10 cfu/ml and post-freeze 2.93 ± 0.43 x 10^10 cfu/ml. The freezing rate for both batches was 20°C/min the survival rate was 50% for batch 1 and 85% for batch 2. These differences may have been due to batch 1 being kept for 24h at 4°C before being frozen.
The respiration experiments were carried out in glucose buffer at different pH. The respiration curves obtained from batch 1 (inoculum 2 x 10^10 cfu/ml) and batch 2 Inoculum 3.2 x 10^10 cfu/ml) were essentially similar and a mean was used as a reference). The respiration experiments were carried out at pH 7 for polymyxin and Znbacitracin and at pH 8 for neomycin. No differences in p-t control curves could be observed at pH 7 or pH 8.
The p-t curves rose and reached a plateau as has been observed for respiration of yeasts and some 20 min later fell to a lower plateau value. Prior incubation of the cells in the buffered glucose for periods up to 20 min before presentation to the calorimeter could reduce or entirely remove this effect.

M. flavus = assay: Electron microscopy of M. flavus treated with Znbacitracin; assay type: cell-based, Micrococcus flavus; conditions: even at 0.05 µg/ml (0.25 x MIC)
Description: No differences could be observed between fresh and frozen cells treated with antibiotic, which is as expected since no observable damage had occurred to the bacterial cells during freezing/thawing.

E. coli [7] = assay: Electron microscopy of E. coli treated with ZNB; assay type: cell-based; conditions: response not lethal for the bacterium; listed as ZNB
[8] = 0.02 ug/ml added at 50 % of p-t curve
[9] = 0.6-1 ug/ml added at 0 % of p-t curve

Question: For CN[C@H](CC(C)C)C(=O)N[C@H]1C(=O)N[C@@H](CC(N)=O)C(=O)N[C@H]2C(=O)N[C@H]3C(=O)N[C@H](C(=O)N[C@H](C(=O)O)c4cc(O)cc(O)c4-c4cc3ccc4O)[C@H](O)c3ccc(c(Cl)c3)Oc3cc2cc(c3O[C@@H]2O[C@H](CO)[C@@H](O)[C@H](O)[C@H]2O[C@H]2C[C@](C)(N)[C@H](O)[C@H](C)O2)Oc2ccc(cc2Cl)[C@H]1O [vancomycin], which “effect on the eye” value [1] is on record?
Answer: Its value is “without any effect to the eye”.

Question: What does the source list for Znbacitracin?
Answer: MIC (B. pumilus): 20 mg/L; Observed effect on p-t curves (Bacillus pumilus): No effect on p-t curve; MBC (Micrococcus flavus [2]; as printed in table head): Ug/ml MIC & MBC 0.2 ug/ml; MIC (Micrococcus flavus [2]; listed as ZNB): 0.2 mg/L; concentrations at which no further response could be recorded (Micrococcus flavus [3]): higher than 4 µg/ml; concentrations at which no variation in p-t curves could be observed (Micrococcus flavus [3]): lower than 0.02 µg/ml; Comments (Micrococcus flavus [3]; [8]): No inhibition observed; Observed effect on p-t curves (Micrococcus flavus [3]; [8]): Standard growth curve; appearance of p-t curves (Micrococcus flavus [3]; 0.02-0.8 µg/ml (0.1 x MIC-4 x MIC)): a power plateau immediately after addition of the antibiotic for varying periods of time and then an increase in power followed by a further small peak; Peak of growth curve later than standard curve (Micrococcus flavus [3]; 0.1-1 ug/ml added at 50 % of p-t curve): Peak of growth curve occurs 60 min later than standard curve; Observed effect on p-t curves (Micrococcus flavus [3]; 0.1-1 ug/ml added at 50 % of p-t curve, CV 1.8%): Linear log dose response curve 2 hours after addition of antibiotic CV 1.8%; Comments (Micrococcus flavus [3]; 0.2-0.3 ug/ml added at 0 % of p-t curve): Initial growth promoting effect - delayed peak after 9 hours; Observed effect on p-t curves (Micrococcus flavus [3]; 0.2-0.3 ug/ml added at 0 % of p-t curve, CV 2.3%, n=10): 1.4 standard curve CV =2.3% , n=10; Comments (Micrococcus flavus [3]; [9]): Bacteriocidal effect confirmed all bacteria are dead; Observed effect on p-t curves (Micrococcus flavus [3]; [9]): Total inhibition of growth; Observed effect on p-t curves (Micrococcus flavus [3]; 1-4 ug/ml added at 50 % of p-t curve, cv 1.4% n=10): Linear log dose response curve 20 min after addition of antibiotic cv = 1.4% n= 10; appearance of p-t curves (Micrococcus flavus [3]; 5 x MIC - 20 x MIC): held at a plateau for a varying amount of time and then decreased towards a baseline value; largest dose that could be distinguished (Micrococcus flavus [3]; added at 50 % of p-t curve): 4 ug/ml largest dose that could be distinguished any higher dose s gave identical dose response curves; concentration with initial growth promoting effect (Micrococcus flavus [3]; added at inoculum): 0.2 to 0.3 µg/mL; MIC [4]: 100 mg/L; effect on growing cultures ([5]; ZNB added to growing cultures (Fig. 17)): a small plateau was reached before growth reoccurred; Observed effect on p-t curves ([5]; single antibiotic at its MIC (0.25ug/ml Neo; 100ug/ml ZNB), added at 50 % of p-t curve): Slightly delayed peak; MBC (E. coli [6]; as printed in table head): > 1000 mg/L; MIC (E. coli [6]; as printed in table head): > 1000 mg/L; MIC (E. coli [6]; text): > 1000 mg/L; Comments (respiring E.coli; ZNB 300 ug/ml - 1000 ug/ml): Resistance demonstrated; Observed effect on p-t curves (respiring E.coli; ZNB 300 ug/ml - 1000 ug/ml, pH 7): No response; response on addition to respiring E.coli (respiring E.coli): No response could be observed; response on addition to respiring E.coli (respiring E.coli; listed as ZNB): no effect on power output; effect on the cell surface (electron micrographs) (M. flavus): Protrusions on the cell wall can be observed; effect on bacterial membrane (electron micrographs) (E. coli [7]): protrusions have been observed on the bacterial membrane; also recorded: did actually cause protrusions to occur on the bacterial membrane
